Source: patent US8603498B2, “Lipo-phosphated or lipo-sulphated compound, compositions comprising it and topical uses thereof” (Sederma, S.A.S., priority 2010, dated 2013)

How the values were obtained:
[1] = system: loricrin; assay: Production of loricrin in cultured human keratinocytes by immunolabelling; format: cell-based; settings: for Loricrin Change (%): vs control
Protocol: Protocol: Human keratinocytes were cultivated up to confluence. The cells were then placed in contact/not contact with the solubilized Lipo-Phosphomalate for 21 days. At the end of this contact period, labelling common to both filaggrin and profilaggrin was carried out on cell layers using specific antibodies. Labelling intensity was analysed on photos (n=15 photos) and compared to that obtained for the negative control and for vitamin D3 at 10^−7M used as a positive differentiation control.
Loricrine is one of the key elements in the formation of the corneal envelope. It is attached to involucrin (see 1.1) by transglutaminase, which forms rigid, insoluble structures. The method described in 1.2. was used.

[2] = system: caspase-14; assay: Production of caspase-14 in cultured human keratinocytes by immunolabelling; format: cell-based; settings: for Caspase Change (%): vs control
[3] = system: 3T3-L1 cells; assay: Lipid incorporation by 3T3-L1 cells (oil red, image analysis); format: cell-based
Protocol: 3T3-L1 cells are sowed and cultivated for 4 days (multiplication). Follow a differentiation phase (incubation with a classic differentiation mixture) and then a maturation phase (with a maturation mixture) in the presence or not of the Lipo-Phosphomalate at different concentrations. At the end of this period, cells were washed, fixed and coloured with oil red. The cell layers were photographed digitally and the red color is quantified by image analysis. The surface percentages of red oil, reported in the table below, were established compared to untreated control cells, and the test validated by comparison to pioglytazone (10 μM), positive control for stimulation of differentiation.

[4] = system: G3PDH; assay: G3PDH activity in differentiating 3T3-L1 cells; format: cell-based
Protocol: 3T3-L1 cells were cultivated until sub-confluence, then induced to differentiate with the appropriate mixture with or without the Lipo-Phosphomalate at different concentrations. After 3 days of incubation, the differenciation mixture is replaced by a new maintaining culture medium, in the presence or not of the Lipo-Phosphomalate. After 3 days of incubation, the cell layers are collected and the activity of G3PDH is assayed.

[5] = system: laminin; assay: Laminin synthesis by human keratinocytes (ELISA); format: cell-based; settings: for laminin ng/10^e6cells: 3 days, supernatant
Protocol: Human keratinocytes are humains were cultivated in MW24 plates for 24 h. Cells were contacted or not with the Lipo-Phosphomalate for 3 days. Culture surpernatants were taken and an assay of the quantity of laminin was achieved. TGF-β1 was used as the positive control.

[6] = system: hydroxylated ceramides; assay: Hydroxylated ceramides in keratinocytes by HPTLC; format: cell-based, human; settings: 5 ppm
Protocol: The same protocol was followed as before but a larger quantity of keratinocyes was used on this occasion because of the limits of detection of the apparatus. After 7 days, the layers were rinsed, lipids extracted using solvents before being deposited on a thin-layer chromatography plate using an automated device. After migration and detection, the bands were analysed and quantified based on a range of standard lipids deposited on the same plate.
At the same time as the HPTLC cholesterol assay, an assay of hydroxylated and non-hydroxylated ceramides was carried out on the extracts.

[7] = system: cholesterol; assay: Cholesterol in keratinocytes by immunolabelling (IMF); format: cell-based, human; settings: 5 ppm, 7 days
Protocol: Cultured human keratinocytes at confluence were placed in contact with the Lipo-Phosphomalate in a medium slightly enriched with calcium to promote the establishment of intercellular junctions and thus improve the anchorage of differentiated cells to the underlying cells. A negative control was carried out in the same medium. After a 7-day contact period, the layer was labeled with a cholesterol-specific fluorescent. The intensity of the labeling was analysed on the photos and compared to that obtained with the negative control (Table 6).

[8] = system: collagen I; assay: Synthesis of collagen I on human dermal fibroblast (immunolabeling); format: cell-based; settings: for collagen I AFU mean: 7 days
Protocol: Normal human fibroblasts (NHF) are cultivated in MW24 plates for 24 hours. The cells are contacted or not with the Lipo-Phosphomalate of the invention at various concentrations for 7 days. The synthesis of collagen I produced by the cells is then quantified by immunolabeling fixed on the layers using a specific antibody. Quantification by image analysis is then performed on the photos. TGF-β1 is used as positive control.
An analysis of variance was performed on the data (cases treated compared with untreated cases). In the case of identity of variances, a Student't test was then performed on the means.

With CCCCCCCCCCCCCCOC(=O)CC(OP(=O)(O)O)C(=O)O (stereo not drawn) [Lipo-Phosphomalate, 2-phosphate-succinic-acid-4-tetradecyle ester] as the compound, how does the “Loricrin (UFA/10^6 cell.)” value ([1]; 1.5 ppm) read?
The value was 1.69 ± 0.67 UFA/10^6 cell.

And the “Loricrin Change (%)” value ([1]; 1.5 ppm)?
Its value is “+131%; p < 0.01”.

And the “Loricrin (UFA/10^6 cell.)” value ([1]; 5 ppm)?
Its value is 3.84 ± 1.19 UFA/10^6 cell.

What about the “Loricrin Change (%)” value ([1]; 5 ppm) of the same compound?
Its value is “+426%; p < 0.01”.

And the “Caspase (UFA/10^6 cell.)” value ([2]; 1.5 ppm)?
The value was 1.13 ± 0.44 UFA/10^6 cell.

And the “Caspase Change (%)” value ([2]; 1.5 ppm)?
Its value is “+121%; p < 0.01”.

And the “Caspase (UFA/10^6 cell.)” value ([2]; 5 ppm)?
Its value is 1.68 ± 0.64 UFA/10^6 cell.

And the “Caspase Change (%)” value ([2]; 5 ppm, listed as Solubilised Lipo-Phosphomalate)?
Its value is “+229%; p < 0.01”.

And the “Caspase Change (%)” value ([2]; 5 ppm, listed as solubilised Lipo-Phosphomalate)?
Its value is “+229%”.

What about the “surface of red oil % Change/control” value ([3]; 10 ppm) of the same compound?
Its value is “+171%; p < 0.01”.

And the “surface of red oil % Change/control” value ([3]; 15 ppm)?
The value was “+294%; p < 0.01”.

And the “surface of red oil % Change/control” value ([3]; 20 ppm)?
The value was “+481%; p < 0.01”.

What about the “G3PDH activity % Change/control” value ([4]; 10 ppm) of the same compound?
The value was “+158%; p < 0.01”.

What about the “G3PDH activity % Change/control” value ([4]; 15 ppm) of the same compound?
The value was “+225%; p < 0.01”.

What about the “laminin % Variation/control” value ([5]; 1.67 ppm) of the same compound?
The value was “+64%; p < 0.01”.

And the “laminin ng/10^e6cells” value ([5]; 1.67 ppm)?
Its value is 190 +/− 11 ng/10^e6cells.

And the “laminin % Variation/control” value ([5]; 5 ppm)?
Its value is “+187%; p < 0.01”.

And the “laminin ng/10^e6cells” value ([5]; 5 ppm)?
The value was 333 +/− 10 ng/10^e6cells.

What about the “laminin % Variation/control” value ([5]; 8.33 ppm) of the same compound?
Its value is “+196%; p < 0.01”.

And the “laminin ng/10^e6cells” value ([5]; 8.33 ppm)?
The value was 343 +/− 10 ng/10^e6cells.

What about the “Hydroxylated Ceramides (pg/10^5 cell.)” value ([6]; 7 days) of the same compound?
The value was 10.50 ± 1.12 pg/10^5 cell.

And the “Hydroxylated Ceramides Change (number of times)” value ([6]; vs control)?
The value was “×7.5”.

What about the “IMF Cholesterol (UFA/10^6 cell.)” value [7] of the same compound?
The value was 4.98 ± 2.59 UFA/10^6 cell.

What about the “IMF Cholesterol % Change” value ([7]; vs control) of the same compound?
Its value is “+107%; p < 0.04”.

What about the “collagen I AFU mean” value ([8]; Eq 1%) of the same compound?
Its value is 8.1 +/− 5.6 AFU.

What about the “collagen I % Variation/control” value ([8]; Eq 1%, p = 0.09) of the same compound?
Its value is “+60%;”.

What about the “collagen I % Variation/control” value ([8]; Eq 3%) of the same compound?
Its value is “+315%;”.

What about the “collagen I AFU mean” value ([8]; Eq 3%) of the same compound?
Its value is 21.1 +/− 13.8 AFU.

What about the “collagen I % Variation/control” value ([8]; Eq 5%) of the same compound?
The value was “+496%;”.

What about the “collagen I AFU mean” value ([8]; Eq 5%) of the same compound?
Its value is 30.4 +/− 14.6 AFU.
